ChEMBL document CHEMBL4346660, “Cryptolepine and aromathecin based mimics as potent G-quadruplex-binding, DNA-cleavage and anticancer agents: Design, synthesis and DNA targeting-induced apoptosis” (Eur J Med Chem, 2019)
Activity calls are given as the source filed them. No cut-off for these calls is given here.

Experiments:
[1] = system: MGC-803; test: Antiproliferative activity against human MGC803 cells assessed as reduction in cell viability incubated for 48 hrs by MTT assay; format: functional, cell-based; settings: MGC-803, 48 h
[2] = system: L02; test: Cytotoxicity against human HL7702 cells assessed as reduction in cell viability incubated for 48 hrs by MTT assay; format: cell-based; settings: L02, 48 h
[3] = system: Calf thymus DNA; test: Binding affinity to calf thymus DNA assessed as hyperchromic effect at 10:1 compound to DNA ratio incubated for 5 mins by UV-Vis spectroscopy; format: nucleic-acid assay; settings: Bos taurus
[4] = system: Calf thymus DNA; test: Binding affinity to calf thymus DNA at 10 uM incubated for 5 mins by CD spectroscopy; format: nucleic-acid assay; settings: Bos taurus
[5] = system: Quadruplex DNA; test: Binding affinity to human HTG21 G-quadruplex DNA at 10 uM incubated for 5 mins by CD spectroscopy; format: nucleic-acid assay
[6] = system: Quadruplex DNA; test: Binding affinity to human Pu27 G-quadruplex DNA at 10 uM incubated for 5 mins by CD spectroscopy; format: nucleic-acid assay
[7] = system: MGC-803; test: Cell cycle arrest in human MGC803 cells assessed as accumulation of cells at S phase at 0.5 uM incubated for 48 hrs by propidium iodide staining based flow cytometry (reference value: 32.97%); format: functional
[8] = system: MGC-803; test: Cell cycle arrest in human MGC803 cells assessed as accumulation of cells at S phase at 2.5 uM incubated for 48 hrs by propidium iodide staining based flow cytometry (reference value: 32.97%); format: functional
[9] = system: MGC-803; test: Cell cycle arrest in human MGC803 cells assessed as accumulation of cells at G2/M phase at 0.5 uM incubated for 48 hrs by propidium iodide staining-based flow cytometry (reference value: 13.07%); format: functional
[10] = system: MGC-803; test: Cell cycle arrest in human MGC803 cells assessed as down regulation of cyclin B1 expression at 0.5 to 2.5 uM incubated for 24 hrs by Western blot analysis; format: functional, cell-based
[11] = system: MGC-803; test: Cell cycle arrest in human MGC803 cells assessed as down regulation of CDK2 expression at 0.5 to 2.5 uM incubated for 24 hrs by immunoblot analysis; format: functional, cell-based
[12] = system: MGC-803; test: Cell cycle arrest in human MGC803 cells assessed as change in cyclin A2 expression at 0.5 to 2.5 uM incubated for 24 hrs by immunoblot analysis; format: functional, cell-based
[13] = system: MGC-803; test: Cell cycle arrest in human MGC803 cells assessed as change in cyclin E2 expression at 0.5 to 2.5 uM incubated for 24 hrs by immunoblot analysis; format: functional, cell-based
[14] = system: MGC-803; test: Induction of apoptosis in human MGC803 cells assessed as viable cells at 0.5 uM incubated for 24 hrs by Annexin V-FITC/propidium iodide staining based flow cytometry (reference value: 96.53+/-2.11%); format: functional; settings: MGC-803, 24 h, read-out: Activity
[15] = system: MGC-803; test: Induction of apoptosis in human MGC803 cells assessed as viable cells at 1 uM incubated for 24 hrs by Annexin V-FITC/propidium iodide staining based flow cytometry (reference value: 96.53+/-2.11%); format: functional; settings: MGC-803, 24 h, read-out: Activity
[16] = system: MGC-803; test: Induction of apoptosis in human MGC803 cells assessed as viable cells at 2.5 uM incubated for 24 hrs by Annexin V-FITC/propidium iodide staining based flow cytometry (reference value: 96.53+/-2.11%); format: functional; settings: MGC-803, 24 h, read-out: Activity
[17] = system: MGC-803; test: Induction of apoptosis in human MGC803 cells assessed as early apoptotic cells at 0.5 uM incubated for 24 hrs by Annexin V-FITC/propidium iodide staining based flow cytometry (reference value: 0.97 +/- 0.10 %); format: functional
[18] = system: MGC-803; test: Induction of apoptosis in human MGC803 cells assessed as early apoptotic cells at 1 uM incubated for 24 hrs by Annexin V-FITC/propidium iodide staining based flow cytometry (reference value: 0.97 +/- 0.10 %); format: functional
[19] = system: MGC-803; test: Induction of apoptosis in human MGC803 cells assessed as late apoptotic cells at 1 uM incubated for 24 hrs by Annexin V-FITC/propidium iodide staining based flow cytometry (reference value: 0.69 +/- 0.05 %); format: functional
[20] = system: MGC-803; test: Induction of apoptosis in human MGC803 cells assessed as necrotic cells at 0.5 uM incubated for 24 hrs by Annexin V-FITC/propidium iodide staining based flow cytometry (reference value: 1.81 +/- 0.09 %); format: functional
[21] = system: MGC-803; test: Induction of apoptosis in human MGC803 cells assessed as appearance of irregular cell shape at 2.5 uM after 24 hrs by Hoechst 33258 staining-based fluorescence microscopic method; format: functional
[22] = system: MGC-803; test: Induction of apoptosis in human MGC803 cells assessed as increase in cytochrome-c expression at 0.5 to 2.5 uM after 24 hrs by Western blot analysis; format: functional, cell-based
[23] = system: MGC-803; test: Induction of apoptosis in human MGC803 cells assessed as increase in Apaf-1 expression at 0.5 to 2.5 uM after 24 hrs by Western blot analysis; format: functional, cell-based
[24] = system: MGC-803; test: Induction of apoptosis in human MGC803 cells assessed as activated caspase-3 level at 2.5 uM after 24 hrs by FITC staining-based flow cytometric analysis (Rvb= 3.46%); format: functional
[25] = system: MGC-803; test: Induction of apoptosis in human MGC803 cells assessed as activated caspase-9 level at 2.5 uM after 24 hrs by FITC staining-based flow cytometric analysis (Rvb= 3.14%); format: functional
[26] = system: MGC-803; test: Induction of apoptosis in human MGC803 cells assessed as increase in AIF expression at 0.5 to 2.5 uM after 24 hrs by Western blot analysis; format: functional, cell-based
[27] = system: MGC-803; test: Induction of mitochondrial membrane depolarization in human MGC803 cells at 0.5 uM incubated for 24 hrs by JC-1 dye-based flow cytometric analysis (Rvb 3.37%); format: functional
[28] = system: MGC-803; test: Induction of mitochondrial membrane depolarization in human MGC803 cells at 1 uM incubated for 24 hrs by JC-1 dye-based flow cytometric analysis (Rvb 3.37%); format: functional
[29] = system: MGC-803; test: Induction of mitochondrial membrane depolarization in human MGC803 cells at 2.5 uM incubated for 24 hrs by JC-1 dye-based flow cytometric analysis (Rvb 3.37%); format: functional
[30] = system: MGC-803; test: Induction of apoptosis in human MGC803 cells assessed as increase in ROS generation incubated for 24 hrs by DCFH-DA dye-based flow cytometric analysis; format: functional, cell-based
[31] = system: MGC-803; test: Antitumor activity against human MGC803 cells xenografted in BALB/C mouse assessed as tumor growth inhibition at 6 mg/kg, ip administered every other day for 2 weeks measured during compound dosing relative to control; format: functional; settings: MGC-803, ip, 336 h, read-out: TGI
[32] = Toxicity in human MGC803 cell xenografted BALB/C mouse assessed as decrease in body weight at 6 to 12 mg/kg, ip administered every other day for 2 weeks measured during compound dosing; format: organism-based; settings: in vivo, 336 h
[33] = system: Calf thymus DNA; test: Binding affinity to calf thymus DNA assessed as blue shift in maximum absorption at 10:1 compound to DNA ratio incubated for 5 mins by UV-Vis spectroscopy; format: nucleic-acid assay; settings: Bos taurus
[34] = system: MGC-803; test: Cell cycle arrest in human MGC803 cells assessed as accumulation of cells at G2/M phase incubated for 48 hrs by propidium iodide staining-based flow cytometry; format: functional
[35] = system: MGC-803; test: Induction of apoptosis in human MGC803 cells assessed as cell shrinkage at 0.5 to 2.5 uM after 24 hrs by Hoechst 33258 staining-based fluorescence microscopic method; format: functional
[36] = system: MGC-803; test: Induction of mitochondrial membrane potential loss in human MGC803 cells at 0.5 to 2.5 uM measured after 24 by JC1 staining-based microscopic analysis; format: functional, cell-based

SMILES: CN(C)CCCNc1c2c(nc3ccc(F)cc13)-c1ccccc1C2
- IC50 [1]: 970 nM
- IC50 [2]: 1570 nM
- Activity [3]: Active
- Activity [4]: Active
- Activity [5]: Active
- Activity [6]: Active
- Activity [7]: 44.73%
- Activity [8]: 59.44%
- Activity [9]: 3.76%
- Activity [10]: Active
- Activity [11]: Active
- Activity [12]: inactive
- Activity [13]: inactive
- viability at 0.5 µM [14]: 80.3%
- viability at 1 µM [15]: 58.3%
- viability at 2.5 µM [16]: 37.3%
- Activity [17]: 13.8%
- Activity [18]: 22%
- Activity [19]: 15%
- Activity [20]: 1.76%
- Activity [21]: Active
- Activity [22]: Active
- Activity [23]: Active
- Activity [24]: 45.1%
- Activity [25]: 46.9%
- Activity [26]: Active
- Activity [27]: 23.6%
- Activity [28]: 89.1%
- Activity [29]: 97.5%
- Activity [30]: Dose-dependent effect
- inhibition in vivo at 6 mg/kg [31]: 31.2%
- Activity [32]: Non-Toxic
- Activity [33]: 10 nm
- Activity [34]: Dose-dependent effect
- Activity [35]: Active
- Activity [36]: Active
